Laboratory results published in publication PMC1976805, “Preclinical pharmacokinetics of benznidazole” (British Journal of Cancer, 1984).
Read-outs that look alike come from different tables or passages of the source.

Experiment: Whole plasma pharmacokinetics in dogs (HPLC)
Type: in vivo, dog
Source text: Br. J. Cancer (1984), 50, 291-303 Preclinical pharmacokinetics of benznidazole P. Workman', R.A.S. White2, M.I. Walton', L.N. Owen2* & P.R. Twentyman' 1MRC Clinical Oncology and Radiotherapeutics Unit, MRC Centre, Hills Road, Cambridge CB2 2QH, and 2Department of Clinical Veterinary Medicine, University of Cambridge, Madingley Road, Cambridge CB3 OES, UK. […] We have investigated the detailed pharmacokinetics of benznidazole in mice, dogs and sheep to provide a data base for the estimation of doses required for chemosensitization in man. Pharmacokinetic behaviour was linear except at high doses in mice. Absorption was fairly rapid and bioavailability was complete following both i.p. administration in mice and oral administration in dogs. Elimination t4 values were longer than for MISO, being 90 min in mice, 4-5 h in sheep and 9-11 h in dogs. At doses giving linear kinetics, peak whole plasma concentrations per administered mgkg-1 were 0.75 jigml-1 for the i.p. route in mice and 1.8jugmlP' for the oral route in dogs. Though between 39 and 59% of plasma benznidazole was bound to protein, tissue penetration was generally good. Tissue/whole plasma ratios ranged from 59-99% for transplantable mouse tumours and from 14-70% for spontaneous dog neoplasms. Nervous tissue penetration was similar to that in tumours: brain/whole plasma ratios averaged between 61 and 76% in mice and 42% in dogs, while peripheral nerve/whole plasma ratios in dogs averaged 74%. Mean liver/whole plasma ratios were 42% and 71% in BALB/c and C3H/He mouse strains respectively. Only -5% of the administered dose was excreted unchanged in the urine, indicating the likelihood of extensive metabolism. […] Enhancement of CCNU response is likely to require circulating benznidazole concentrations of 10-30 pgml-1 and we predict that these will be obtained with oral doses of 6-20 mgkg- 1 in man. […] This enhancement, or chemosensitization, is usually greater than that seen in dose-limiting normal tissues, resulting in an improved therapeutic index. Because of the relatively high doses of MISO usually required for chemosensitization in mice (see above refs), and also because of its neurotoxicity in man (Dische et al., 1977), we have been interested in finding an improved chemosensitizer. […] The lipophilic ana- logue benznidazole (N-benzyl-(2-nitroimidazolyl) acetamide, Ro 07-1051; Radanil; Roche), the structure of which is shown in Figure 1, was selected for detailed study because of its ability to *Present address: Animal Health Trust, Small Animals Centre, Lanwades Park, Kennett, Newmarket, Suffolk CB8 7PN, UK. Correspondence: P. Workman. […] These findings have been confirmed independently by Siemann et al. (1983). Although benznidazole is used quite widely in South America to treat patients with the trypanosomal infection Chagas' disease or with mucotaneous Leishmaniasis (Barclay et al., 1978; Cerisola et al., 1978; Coura et al., 1978; Fava et al., 1978), apart from our preliminary studies (White et al., 1982) the only published data on its pharmaco- kinetics are for human plasma concentrations measured by polarography (Raaflub & Ziegler, 1979; Raaflub, 1980). Here we describe the pharmacokinetics of benznidazole in the mouse, sheep and dog, as determined by high-performance liquid chromatography (HPLC). […] The Macmillan Press Ltd., 1984 292 P. WORKMAN et al. particularly on plasma and tumour concentrations, have been used as a basis for the estimation of the benznidazole doses required in a Phase I trial of benznidazole plus CCNU, at present ongoing in our Unit. Materials and methods Animals and tumours Adult inbred male BALB/c mice were obtained from OLAC (Southern) Ltd. (Bicester, UK) and adult inbred C3H/He mice of both sexes from OLAC and our own breeding colony. Mice were housed in plastic cages on sawdust bedding made from soft white woods, and allowed laboratory chow and water ad lib. They were used at 20-35 g body wt.

[1] = collie crossbred, dog, plasma, iv, 5 mg/kg, dog C, 5 mg kg-1 i.v.
[2] = collie crossbred, dog, plasma, iv, 5 mg/kg, dog D, 5 mg kg-1 i.v.
[3] = dog A, collie crossbred 18 kg, 25 mg kg-1 oral
[4] = dog B, collie crossbred 28 kg, 25 mg kg-1 oral

SMILES: O=C(Cn1ccnc1[N+](=O)[O-])NCc1ccccc1 [benznidazole, N-benzyl-(2-nitroimidazolyl) acetamide]
- AUC(0-inf) (beagle, dog, plasma, po, 50 mg/kg, dog E, 50 mg kg-1 oral): 760 µg·h/mL
- half-life (beagle, dog, plasma, po, 50 mg/kg, dog E, 50 mg kg-1 oral, 95% confidence limits 5.3-6.1, read-out: elimination half-life t1/2β (converted)): 5.7 h
- AUC(0-inf) (beagle, dog, plasma, po, 50 mg/kg, dog F, 50 mg kg-1 oral): 707 µg·h/mL
- half-life (beagle, dog, plasma, po, 50 mg/kg, dog F, 50 mg kg-1 oral, 95% confidence limits 6.4-7.3, read-out: elimination half-life t1/2β (converted)): 6.8 h
- Tmax (collie crossbred, beagle, dog, plasma, dogs, oral administration, usual range, read-out: time to peak plasma concentration): 1 to 5 h
- Vd (collie crossbred, dog, plasma ultrafiltrate (unbound drug), iv, 5 mg/kg, dog C, 5 mg kg-1 i.v., read-out: volume of distribution (Vd area), unbound drug data): 2.05 L/kg
- Vd (collie crossbred, dog, plasma ultrafiltrate (unbound drug), iv, 5 mg/kg, dog D, 5 mg kg-1 i.v., read-out: volume of distribution (Vd area), unbound drug data): 1.87 L/kg
- half-life (collie crossbred, dog, plasma, dogs (large crossbred), summary value, read-out: elimination t1/2): 9 to 11 h
- AUC(0-inf) [1]: 105 µg·h/mL
- clearance [1]: 0.793 mL/min/kg
- half-life (collie crossbred, dog, plasma, iv, 5 mg/kg, dog C, 5 mg kg-1 i.v., 95% confidence limits 7.1-8.1, read-out: elimination half-life t1/2β (converted)): 7.6 h
- Vd (collie crossbred, dog, plasma, iv, 5 mg/kg, dog C, 5 mg kg-1 i.v., read-out: volume of distribution (Vd area), total plasma data): 0.52 L/kg
- AUC(0-inf) [2]: 138 µg·h/mL
- clearance [2]: 0.603 mL/min/kg
- half-life (collie crossbred, dog, plasma, iv, 5 mg/kg, dog D, 5 mg kg-1 i.v., 95% confidence limits 9.2-11.4, read-out: elimination half-life t1/2β (converted)): 10.2 h
- Vd (collie crossbred, dog, plasma, iv, 5 mg/kg, dog D, 5 mg kg-1 i.v., read-out: volume of distribution (Vd area), total plasma data): 0.53 L/kg
- half-life (collie crossbred, dog, plasma, iv, 5 mg/kg, dogs C and D, 5 mg kg-1 i.v., read-out: distribution phase half-life t1/2α (estimated by back-stripping, about)): 0.167 to 0.417 h
- AUC(0-inf) (collie crossbred, dog, plasma, po, 12.5 mg/kg, dog C, 12.5 mg kg-1 oral): 419 µg·h/mL
- half-life (collie crossbred, dog, plasma, po, 12.5 mg/kg, dog C, 12.5 mg kg-1 oral, 95% confidence limits 9.7-13.3, read-out: elimination half-life t1/2β (converted)): 11.2 h
- AUC(0-inf) (collie crossbred, dog, plasma, po, 12.5 mg/kg, dog D, 12.5 mg kg-1 oral): 450 µg·h/mL
- half-life (collie crossbred, dog, plasma, po, 12.5 mg/kg, dog D, 12.5 mg kg-1 oral, 95% confidence limits 17.3-22.0, read-out: elimination half-life t1/2β (apparent) (converted)): 19.4 h
- AUC(0-inf) (collie crossbred, dog, plasma, po, 25 mg/kg, dog A, 25 mg kg-1 oral, samples collected up to 9 h only): ~800 µg·h/mL
- AUC(0-inf) (collie crossbred, dog, plasma, po, 25 mg/kg, dog B, 25 mg kg-1 oral, samples collected up to 9 h only): ~800 µg·h/mL
- AUC(0-inf) (collie crossbred, dog, plasma, po, 25 mg/kg, dog C, 25 mg kg-1 oral): 687 µg·h/mL
- half-life (collie crossbred, dog, plasma, po, 25 mg/kg, dog C, 25 mg kg-1 oral, 95% confidence limits 8.9-10.6, read-out: elimination half-life t1/2β (converted)): 9.7 h
- AUC(0-inf) (collie crossbred, dog, plasma, po, 25 mg/kg, dog D, 25 mg kg-1 oral): 804 µg·h/mL
- half-life (collie crossbred, dog, plasma, po, 25 mg/kg, dog D, 25 mg kg-1 oral, 95% confidence limits 8.9-10.6, read-out: elimination half-life t1/2β (converted)): 9.7 h
- half-life (collie crossbred, dog, plasma, po, larger crossbred dogs, oral administration, read-out: elimination t1/2, range): 9.5 to 11.2 h
- peak time [3]: 5 h
- peak whole plasma concentration [3]: 48.4 µg/mL
- peak time [4]: 3 h
- peak whole plasma concentration [4]: 52.2 µg/mL
- peak time (dog C, 5 mg kg-1 i.v.): 0.083 h
